Reference: ChEMBL document CHEMBL4251724, “Ypaoamides B and C, Linear Lipopeptides from an Okeania sp. Marine Cyanobacterium” (J Nat Prod, 2018)
Active and inactive are the calls of the source. The calls are words filed in the database; no cut-off is given here.

Experiments:
Format in all cases: cell-based
L6 [1] = experiment: Activation of AMPK in rat L6 cells assessed as glucose uptake after 16 hrs
L6 [2] = experiment: Cytotoxicity against rat L6 cells assessed as reduction in cell viability at 10 to 40 uM after 16 hrs by MTT assay; conditions: l6, 16 h
L6 [3] = experiment: Activation of AMPK in rat L6 cells assessed as increase in AMPK phosphorylation at 40 uM by Western blot analysis
L6 [4] = experiment: Activation of AMPK in rat L6 cells assessed as glucose uptake at 40 uM in presence of AMPK inhibitor compound C after 8 hrs

CO/C(=C/C(=O)N1C(=O)C=C[C@@H]1C)C/C(=C/Cl)CNC(=O)CCCCC(C)(C)C
Activity (L6 [1]): Dose-dependent effect | Activity (L6 [2]): Non-Toxic

CO/C(=C/C(=O)N1C(=O)C=C[C@@H]1CC(C)C)CCNC(=O)CCCCC(C)(C)C
Activity (L6 [1]): Dose-dependent effect | Activity (L6 [3]): Active | Activity (L6 [2]): Non-Toxic | Activity (L6 [4]): inactive
